Experiments:
ATDC5 micromasses = assay: qRT-PCR relative expression of genes of interest in ATDC5 micromass culture (chondrogenesis); format: cell-based, mouse
Method: Mouse chondrogenic ATDC5 cells (cartilage-specific chondrogenic strain) were cultured until confluent in maintenance medium containing 1:1 Dulbecco's modified Eagle's medium (DMEM): Ham's F-12 mix (Gibco) supplemented with 1% antibiotic (AB, Penicillin-Streptomycin, Gibco), 5% fetal bovine serum (FBS) (Gibco) and enriched with […] human transferrin (Sigma) and 30 nM sodium selenite (Sigma). Cells were trypsinized, washed and resuspended at 2.10^7 cells/mL in a chondrogenic medium made of maintenance medium enriched by 1× of ITS premix (resulting in 10 μg/mL insulin, 10 μg/mL human transferrin and 30 nM sodium selenite) (Life technologies). One droplet of cell suspension (10 μL) was placed at the center of each well of a 24-well plate. Cells were allowed to adhere for 2 h at 37° C., followed by addition of 500 μL chondrogenic medium supplemented. […] After 14 days, induction of hypertrophic differentiation and mineralization was induced by the mineralization medium made of α-MEM medium (Gibco) containing 1% AB, 5% FBS, 5 μg/ml human transferrin, 1× of ITS premix, 50 μg/ml ascorbic acid-2-phosphate (AA) (Sigma) and 10 mM β-glycerophosphate (BGP) (Sigma). […] Micromasses were collected at time points 1, 7, 14 21 and 28 days. Each time point was processed in three technical replicates. The medium was changed every other day. […] The genes of interest were articular chondrocyte markers (aggrecan, type 2 collagen (col2a1)), YAP/TAZ target genes (ctgf, ankrd) and pro-catabolic enzymes involved in the pathophysiology of OA (mmp3, mmp13).
Total RNA was isolated using the Nucleospin RNA II kit (Macherey-Nagel) and reverse-transcribed using the MMLV reverse transcriptase (Thermo Fisher Scientific) following the manufacturers' instructions. The iTaq SYBR green qPCR master mix (BioRad) was used to assess the mRNA expression of target genes of interest. Primer sequences can be provided upon request. The following PCR conditions were used: 1 minute at 95° C., 40 cycles of 15 sec of denaturation at 95° C., followed by 1 minute of annealing-elongation at 60° C. Melting curve analysis was performed to determine the amplification of the specific product. Results were expressed using the comparative threshold method and were normalized to housekeeping gene PPIA (Peptidylprolyl Isomerase A) mRNA level for ATDC5 cells and MACs, or normalized to housekeeping gene S29 (ribosomal protein S29) mRNA level for MC3T3-E1 cells. The Via7 real-time PCR system (Thermo Fisher Scientific) was used for qRT-PCR measurements.
(§1) ATDC5 cells were cultured as micromasses and differentiated during 14 days using ITS as mentioned previously. […] RNA was isolated and qPCR were performed for different target genes, i.e. type II collagen and aggrecan (articular chondrocyte extracellular matrix), CTGF (YAP/TAZ target genes, indicators of the pathway activity) and MMP3 (cartilage degrading enzyme increased during osteoarthritis) (FIG. 15). Alcian blue staining was performed on the micromasses cultures, and biochemical quantitation was performed as previously described (FIG. 16).
as §1, with “gene, indicator” for “genes, indicators”, “17).” for “15).”, “18).” for “16).”

MMP13 = MMP13 enzymatic activity in culture supernatants of mouse articular chondrocytes; format: cell-based; conditions: PEP16 at 300 ng/mL with IL1β at 100 pg/mL; 24 h
Method: Mouse articular chondrocyte (MACs) were isolated from femoral heads by enzymatic digestion of whole femoral head caps. Samples were washed three times in 1% AB/phosphate buffered saline (PBS) and incubated with 2 mg/ml pronase (Roche)/DMEM-F12 at 37° C. for 1 h at slow rotation 100 rpm followed by a 3 h incubation with 1.5 mg/ml collagenase B (Roche)/DMEM-F12 at 37° C. Cells were seeded at 1×10^6 cells/[…], and cultured for 7 to 14 days in growth medium DMEM-F12, containing 1% AB (Gibco), 10% FBS (Gibco) and 5% L-glutamine (Thermoscientific). Passage 1 cells were utilized for the experiments. The culture supernatants were then harvested in order to perform MMP13 enzymatic activity assay. The evaluation of the expression of genes of interest included articular chondrocyte markers (aggrecan, type 2 collagen (col2a1)), YAP/TAZ target genes (ankrd) and pro-catabolic enzyme involved in the pathophysiology of OA (mmp3).
The MMP13 enzymatic activity was assessed using the MMP13 fluorogenic substrate (Merck Millipore). Briefly, culture supernatants harvested at the end of the different experiments were mixed with 1.5 mM of 4-aminophenylmercuric acetate, and incubated for 1 h at 37° C., in order to turn every pro-MMPs into active MMPs. […] Fluorescence was evaluated using the following parameters, excitation 325 nm and emission 393 nm, on the Varioskan Flash device (Thermo Fisher Scientific). […]

MC3T3-E1 cells = assay: Quantification of mineralization (Alizarin Red) in MC3T3-E1 cells; format: cell-based, mouse; conditions: PEP16 at 100 or 300 ng/mL; day 21; absorbance 405 nm
Method: Each time point was processed in three technical replicates. The medium was changed every two days.
Cells were washed with PBS and fixed with 95% ice-cold ethanol for 30 min at 4° C. for staining. After washing with distilled water, cells were stained with Alizarin Red staining (1% Alizarin Red S (Sigma)), washed three times with distilled water to remove unbound staining and air-dried. Quantification of the staining was performed by dissolving the mineral content in 800 μl of 10% acetic acid for 30 minutes. Then, the wells were scraped, the content of each well was harvested in a separate tube and vortexed for 30 seconds. Each tube was heated at 85° C. for 10 minutes, then put on ice for 5 minutes. Finally, tubes were centriguated at 13000 rpm for 15 minutes, the liquid phase was harvested and mixed with 100 μl of 10% ammonium hydroxide. Absorbance was measured at 405 nm with a spectrophotometer (Varioskan Flash, Thermo Fisher Scientific).
The mineralization level was evaluated by a biochemical assay as previously described after 21 days of differentiation culture. Results are representative of 3 experiments.

[1] = 300 ng/ml, differentiated 14 days with ITS, D14 vs CTL
[2] = PEP16 at 30, 100, 300 ng/mL, day 1, 7, 14, 21, 28, vs non-treated control, normalized with ppia

Sequence: DRLGKKVKRWDMKLRH (PEP16) [peptide derived from the netrin-like domain of the FRZB protein]
- MMP3 expression (ATDC5 micromasses; [1]): significant decrease
- YAP/TAZ target genes (CTGF) expression (ATDC5 micromasses; [1]): significant decrease
- articular chondrocyte extracellular matrix genes (type II collagen and aggrecan) expression (ATDC5 micromasses; [1]): significant increase
- relative expression level of aggrecan (ATDC5 micromasses; [2]): significantly enhanced the induction of the expression
- relative expression level of col2a1 (type 2 collagen) (ATDC5 micromasses; [2]): significantly enhanced the induction of the expression
- relative expression level of ctgf (Hippo/YAP/TAZ target gene) (ATDC5 micromasses; [2]): efficiently reduced the expression
- relative expression level of mmp3 (ATDC5 micromasses; [2]): efficiently reduced the expression
- relative expression level of mmp13 (ATDC5 micromasses; [2]): efficiently reduced the expression
- IL1β-induced MMP13 enzymatic activity in culture supernatant (MMP13): significantly reduced
- mineralization quantification (mineral content in the extracellular matrix) (MC3T3-E1 cells): significantly increased the accumulation of mineral content

— US20230183303A1, “Therapeutic Potential of Peptides from the "Netrin-Like" Domain of the FRZB Protein” (Université de Lorraine, priority 2020, published 2023)
